Laboratory results from patent US10813926B2, “Morphinan compounds” (Concert Pharmaceuticals, Inc., priority 2008, dated 2020).
Counter-ions that a name gives are not always drawn.

What was measured:
[1] = Metabolic stability using human liver microsomes; format: in vitro ADME; settings: for half-life at 1 μM: pH 7.4, read-out: t1/2 ± SD, calculated half-life in human liver microsomes; for half-life at 1 μM / t1/2 ± SD, calculated half-life in human liver microsomes: 1.0 mg/mL human liver microsomes, 1 μM test compound, 2 mM NADPH, 37° C., triplicate
Procedure: Human liver microsomes (20 mg/mL) were obtained from Xenotech, LLC (Lenexa, Kans.). β-nicotinamide adenine dinucleotide phosphate, reduced form (NADPH), magnesium chloride (MgCl2), and dimethyl sulfoxide (DMSO) were purchased from Sigma-Aldrich.
7.5 mM stock solutions of test compounds were prepared in DMSO. The 7.5 mM stock solutions were diluted to 50 μM in acetonitrile (ACN). The 20 mg/mL human liver microsomes were diluted to 1.25 mg/mL (1 mg/mL final) in 0.1 M potassium phosphate buffer, pH 7.4, containing 3 mM MgCl2. The diluted microsomes (375 μL) were added to wells of a 96-well polypropylene plate in triplicate. 10 μL of the 50 μM test compound was added to the microsomes and the mixture was pre-warmed for 10 minutes. Reactions were initiated by addition of 125 μL of pre-warmed NADPH solution. The final reaction volume was 0.5 mL and contained 1.0 mg/mL human liver microsomes, 1 μM test compound, and 2 mM NADPH in 0.1 M potassium phosphate buffer, pH 7.4, and 3 mM MgCl2. The reaction mixtures were incubated at 37° C., and 50 μL aliquots were removed at 0, 5, 10, 20, and 30 minutes and added to shallow 96-well plates which contained 50 μL of ice-cold ACN with internal standard to stop the reactions. The plates were stored at 4° C. for 20 minutes after which 100 μL of water was added to the wells of the plate before centrifugation to pellet precipitated proteins. Supernatants were transferred to another 96-well plate and analyzed for amounts of parent remaining by LC-MS/MS using an Applied Bio-systems API 4000 mass spectrometer.
7-ethoxy coumarin was used as a positive control.
The in vitro t1/2s for test compounds were calculated from the slopes of the linear regression of % parent remaining (ln) vs incubation time relationship:
in vitro t1/2=0.693/k, where k=−[slope of linear regression of % parent remaining(ln) vs incubation time]
Data Analysis was Performed Using Microsoft Excel Software.

CYP2D6 = target: T1, CYP2D6 (Homo sapiens, UniProt P10635); assay: Metabolic stability in CYP2D6 SUPERSOMES; format: in vitro ADME; settings: human, recombinant human CYP2D6 SUPERSOMES, pH 7.4; 50 pmol/mL CYP2D6 SUPERSOMES, 1 μM test compound, 2 mM NADPH, 37° C., 0-30 minutes, triplicate; read-out: t1/2 ± SD, calculated half-life in SUPERSOMES
T1 construct: purchased GenTest (Woburn, Mass., USA)
T1 sequence (P10635 whole entry): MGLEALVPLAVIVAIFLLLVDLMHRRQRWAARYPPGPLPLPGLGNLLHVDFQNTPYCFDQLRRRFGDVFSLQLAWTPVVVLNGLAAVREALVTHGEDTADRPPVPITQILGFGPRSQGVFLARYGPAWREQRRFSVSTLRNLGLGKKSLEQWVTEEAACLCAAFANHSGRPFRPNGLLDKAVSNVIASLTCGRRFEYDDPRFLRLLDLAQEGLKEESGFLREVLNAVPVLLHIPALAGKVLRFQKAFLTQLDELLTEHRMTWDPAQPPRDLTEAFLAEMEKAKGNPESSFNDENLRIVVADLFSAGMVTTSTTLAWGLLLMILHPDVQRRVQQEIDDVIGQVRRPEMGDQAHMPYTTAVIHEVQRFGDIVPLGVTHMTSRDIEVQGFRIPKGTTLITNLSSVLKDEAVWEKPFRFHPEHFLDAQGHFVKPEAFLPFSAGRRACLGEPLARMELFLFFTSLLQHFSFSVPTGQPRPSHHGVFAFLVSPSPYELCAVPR
Procedure: (§1) Human CYP2D6 SUPERSOMES™ were purchased from GenTest (Woburn, Mass., USA). 7.5 mM stock solutions of test compounds (Compounds 100, 102, 104, 106, dextromethorphan, a deuterated analog of dextromethorphan wherein each methyl group was replaced with CD3 (“d6-dextromethorphan”, chemical name (+)-3-d3-methoxy-17-d3-methyl-(9α,13α,14α)-morphinan, also referred to as Compound 101 in U.S. Ser. No. 12/112,936, and as “Test Compound” in FIG. 1 and Table 2 below), the ethyl ether analog of dextromethorphan (“dextroethorphan”) or the isopropyl ether analog of dextromethorphan (“dextroisoproporphan”)) were prepared in DMSO. The 7.5 mM stock solutions were diluted to 50 μM in acetonitrile (ACN). The 1000 pmol/mL CYP2D6 supersomes were diluted to 62.5 pmol/mL in 0.1 M potassium phosphate buffer, pH 7.4, containing 3 mM MgCl2. The diluted SUPERSOMES™ were added to wells of a 96-well deep-well polypropylene plate in triplicate. 10 μL of the 50 μM test compound was added to the supersomes and the mixture was pre-warmed for 10 minutes. Reactions were initiated by addition of pre-warmed NADPH solution. The final reaction volume was 0.5 mL and contained 50 pmol/mL CYP2D6 SUPERSOMES™, 1 μM test compound, and 2 mM NADPH in 0.1 M potassium phosphate buffer, pH 7.4, and 3 mM MgCl2. The reaction mixtures were incubated at 37° C. and 50 μL aliquots were removed at 0, 5, 10, 20, and 30 minutes and added to shallow-well 96-well plates which contained 50 μL of ice-cold ACN with internal standard to stop the reactions. The plates were stored at 4° C. for 20 minutes after which 100 μL of water was added to the wells of the plate before centrifugation to pellet precipitated proteins. Supernatants were transferred to another 96-well plate and analyzed for amounts of parent remaining by LC-MS/MS using an Applied Bio-systems API 4000 mass spectrometer.
(§2) The in vitro half-life (t1/2) for each of the test compounds was calculated from the slopes of the linear regression of % parent remaining (ln) vs incubation time relationship: in vitro t1/2=0.693/k, where k=−[slope of linear regression of % parent remaining(ln) vs incubation time]. Data analysis was performed using Microsoft Excel Software.

Human CYP2D6 SUPERSOMES = target: T2, Human CYP2D6 SUPERSOMES (Homo sapiens, UniProt P10635); assay: Metabolic stability in CYP2D6 SUPERSOMES; format: in vitro ADME; settings: 50 pmol/mL CYP2D6 SUPERSOMES, 1 μM test compound, 2 mM NADPH, 37° C., 0-30 minutes, triplicate
T2 construct: purchased GenTest (Woburn, Mass., USA)
T2 sequence (P10635 whole entry): as above
Procedure: as §1, §2

[2] = healthy human males; cited from earlier work
[3] = Table 3, vs dextroethorphan or dextroisoproporphan

With `CC(C)Oc1ccc2c(c1)[C@@]13CCCC[C@H]1[C@@H](C2)N(C)CC3` [Dextroisoproporphan, (+)-3-(2-propoxy)-17-methyl-morphinan, reference compound] the half-life at 1 μM ([1]; Table 3) was 36.1 ± 1.6 min and the half-life at 1 μM (CYP2D6) was 21.7 ± 1.6 min.
For `[2H]C([2H])([2H])Oc1ccc2c(c1)[C@]13CCCC[C@@H]1[C@H](C2)N(C([2H])([2H])[2H])CC3` [Test Compound, (+)-3-d3-methoxy-17-d3-methyl-(9α,13α,14α)-morphinan, reference compound], the “t1/2 ± SD, calculated half-life in SUPERSOMES” value (Human CYP2D6 SUPERSOMES) was 5.6 ± 1.5 min.
For `[2H]C([2H])([2H])C([2H])(Oc1ccc2c(c1)[C@]13CCCC[C@@H]1[C@H](C2)N(C)CC3)C([2H])([2H])[2H]` [Compound 106, (+)-3-(Isopropoxy-d7)-17-methyl-(9α,13α,14α)-morphinan], the “Change over non-deuterated compound (half-life)” value [1, 3] was 91%, the half-life at 1 μM ([1]; Table 3) was 68.8 ± 0.9 min and the half-life at 1 μM (CYP2D6) was 36 ± 2.8 min.
For `[2H]C([2H])([2H])N1CC[C@@]23CCCC[C@@H]2[C@@H]1Cc1ccc(OC([2H])([2H])C([2H])([2H])[2H])cc13` [Compound 100, (+)-3-(Ethoxy-d5)-17-(methyl-d3)-(9α,13α,14α)-morphinan hydrochloride], the “t1/2 ± SD, calculated half-life in human liver microsomes” value ([1]; Table 3) was 59.2 ± 1.7 min, the “Change over non-deuterated compound (half-life)” value [1, 3] was 109% and the “t1/2 ± SD, calculated half-life in SUPERSOMES” value (Human CYP2D6 SUPERSOMES) was 51.3 ± 3.7 min.
With `[2H]C([2H])([2H])N1CC[C@@]23CCCC[C@@H]2[C@@H]1Cc1ccc(OC([2H])(C([2H])([2H])[2H])C([2H])([2H])[2H])cc13` [Compound 102, (+)-3-(Isopropoxy-d7)-17-(methyl-d3)-(9α,13α,14α)-morphinan] the “Change over non-deuterated compound (half-life)” value [1, 3] was 69%, the half-life at 1 μM ([1]; Table 3) was 61 ± 0.4 min and the half-life at 1 μM (CYP2D6) was 39 ± 1.9 min.
With `CCOc1ccc2c(c1)[C@@]13CCCC[C@H]1[C@@H](C2)N(C)CC3` [Dextroethorphan, (+)-3-ethoxy-17-methylmorphinan, reference compound] the “t1/2 ± SD, calculated half-life in human liver microsomes” value ([1]; Table 3) was 28.3 ± 0.6 min and the “t1/2 ± SD, calculated half-life in SUPERSOMES” value (Human CYP2D6 SUPERSOMES) was 10.3 ± 2.1 min.
For `Cc1ccc2c(c1)[C@]13CCCC[C@@H]1[C@H](C2)N(C)CC3` [Dimemorfan, (+)-(9α,13α,14α)-3,17-dimethylmorphinan], the “fraction of a dose metabolized” value [2] is given as “Greater than 98%”.
In the case of `COc1ccc2c(c1)[C@]13CCCC[C@@H]1[C@H](C2)N(C)CC3` [Dextromethorphan, (+)-3-methoxy-17-methyl-(9α,13α,14α)-morphinan, reference compound], the “t1/2 ± SD, calculated half-life in SUPERSOMES” value (Human CYP2D6 SUPERSOMES) is reported as 1.7 ± 0.3 min.
In the case of `[2H]C([2H])([2H])c1ccc2c(c1)[C@]13CCCC[C@@H]1[C@H](C2)N(C)CC3` [Compound 108, (+)-3-(Methyl-d3)-17-methyl-(9α,13α,14α)-morphinan], the “Change over non-deuterated compound (half-life)” value ([1]; Table 4, vs dimemorfan) is reported as 21%.
With `[2H]C([2H])([2H])c1ccc2c(c1)[C@]13CCCC[C@@H]1[C@H](C2)N(C([2H])([2H])[2H])CC3` [Compound 110, (+)-3-(Methyl-d3)-17-(methyl-d3)-(9α,13α,14α)-morphinan] the “Change over non-deuterated compound (half-life)” value ([1]; Table 4, vs dimemorfan) was 37%.
With `[2H]C([2H])([2H])C([2H])([2H])Oc1ccc2c(c1)[C@]13CCCC[C@@H]1[C@H](C2)N(C)CC3` [Compound 104, (+)-3-(Ethoxy-d5)-17-methyl-(9α,13α,14α)-morphinan hydrochloride] the “t1/2 ± SD, calculated half-life in human liver microsomes” value ([1]; Table 3) was 59.1 ± 2.2 min, the “Change over non-deuterated compound (half-life)” value [1, 3] was 109% and the “t1/2 ± SD, calculated half-life in SUPERSOMES” value (Human CYP2D6 SUPERSOMES) was 49.1 ± 4.1 min.
